Data set [1] can be described thus: physchem. The settings on record: methanol:water:HCl, pH 1.
Data set [2] in a line: physchem. The settings on record: saline.

Molecules are shown by their SMILES. Values after ≈ are worked out from the molar mass of the structure shown.

A word on the amount remaining: it is what is left of the initial amount, in per cent. A high value points to less turnover. One may read the solubility as the dissolved amount per volume that the medium holds. Read a low solubility as little dissolved substance.

For the compound `COc1ccc(CNc2nn(C)c3ccc(C(F)(F)F)cc23)cc1`, in data set [1], the fraction remaining at 96 h stood at 100%.

The compound `Clc1cccc(Nc2nnc(-c3ccccc3)c3ccccc23)c1` yielded a solubility at 24 h in data set [2] of 63 µg/mL (≈ 190 µM).

`COc1ccc(CNc2nn(-c3cccnc3)c3ccc(C(F)(F)F)cc23)cc1` came in with a fraction remaining at 96 h in data set [1] of 100%. For the same compound, the solubility at 24 h in data set [2] amounted to 15 µg/mL (≈ 37.7 µM).

Source of the values: ChEMBL document CHEMBL4396898, “Design and synthesis of 3-aminophthalazine derivatives and structural analogues as PDE5 inhibitors: anti-allodynic effect against neuropathic pain in a mouse model” (Eur J Med Chem, 2019).
